Measurements taken from patent US6197752A, “Glycomimetics as selectin antagonists and pharmaceuticals having antiinflammatory activity prepared therefrom” (Glycorex AB, priority 1995, dated 2001).
Like-named read-outs stand apart in the source and are kept apart here.

How the values were obtained:
[1] = tested on: selectins; conditions: cited from earlier work
[2] = tested on: 5-lipoxygenase; conditions: WO 95/04526; WO 94/24145; cited from earlier work
[3] = target: T1, P-Selectin (Homo sapiens, UniProt P16109); conditions: WO 95/04526, WO 94/24145, cited from earlier work
T1 sequence (P16109 42-830): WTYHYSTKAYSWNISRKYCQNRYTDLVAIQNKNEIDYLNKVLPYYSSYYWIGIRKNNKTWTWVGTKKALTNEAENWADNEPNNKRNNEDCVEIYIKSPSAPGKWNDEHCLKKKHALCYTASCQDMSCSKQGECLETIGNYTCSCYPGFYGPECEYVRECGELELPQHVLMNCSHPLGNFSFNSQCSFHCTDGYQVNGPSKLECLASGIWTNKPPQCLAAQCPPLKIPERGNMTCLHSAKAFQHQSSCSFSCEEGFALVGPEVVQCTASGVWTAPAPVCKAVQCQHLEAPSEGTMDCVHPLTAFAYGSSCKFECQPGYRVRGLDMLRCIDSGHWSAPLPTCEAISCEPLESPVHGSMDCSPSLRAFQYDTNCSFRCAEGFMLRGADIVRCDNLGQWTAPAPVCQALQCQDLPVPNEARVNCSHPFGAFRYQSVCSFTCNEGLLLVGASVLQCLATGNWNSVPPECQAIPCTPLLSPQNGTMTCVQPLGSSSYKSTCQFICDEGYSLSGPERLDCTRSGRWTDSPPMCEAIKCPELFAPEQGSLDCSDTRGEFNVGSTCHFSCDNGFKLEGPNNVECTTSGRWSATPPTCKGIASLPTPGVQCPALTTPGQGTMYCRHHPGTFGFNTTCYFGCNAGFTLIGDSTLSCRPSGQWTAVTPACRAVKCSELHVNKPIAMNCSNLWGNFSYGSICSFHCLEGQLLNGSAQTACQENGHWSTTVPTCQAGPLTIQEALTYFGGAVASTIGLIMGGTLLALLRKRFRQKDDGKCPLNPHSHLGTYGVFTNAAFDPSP

[4] = WO 95/04526; WO 94/24145; cited from earlier work
[5] = tested on: leukocyte adhesion on the endothelium; assay: LPS-induced leukocyte adhesion in vivo, intravital microscopy in the mesenterium of the rat; conditions: SPRD (m)
From the text: In inflammatory processes and other states which activate the cytokines, a critical part is played by the destruction of tissue by means of leukocytes which migrate in or which block the microcirculation. The first phase, which is critical for the subsequent course of the disease, is the activation of leukocytes within the blood stream, especially in the pre- and post-capillary area. […] All subsequent leukocyte effects, i.e. active migration through the vessel wall and subsequent oriented migration in the tissue, are secondary reactions (Harlan, J. M., Leukocyte-endothelial interaction, Blood 65, 513-525,1985). […]
The induced adhesion of leukocytes is quantified by an investigation technique involving intravital microscopy in the mesenterium of the rat (Atherton A. and Born G.V.R., Quantitative investigations of the adhesiveness of circulating polymorphonuclear leukocytes to blood vessel walls. J. Physiol. 222, 447-474,1972; Seiffge, D. Methoden zur Untersuchung der Rezeptor-vermittelten Interaktion zwischen Leukozyten und Endotheizellen im Entzundungsgeschehen [Methods of investigating receptor-mediated interaction between leukocytes and endothelial cells in the case of inflammation] in: Ersatz- und Erganzungsmethoden zu Tierversuchen in der biomedizinischen Forschung, Schoffl, H. et al., (eds.) Springer, 1995 (in press)). […]

[6] = tested on: myocardial reperfusion injuries; conditions: animal experiments; Buerke et al. 1994; cited from earlier work
[7] = tested on: P-selectin-dependent lung injuries; conditions: animal experiments; Mulligan et al. 1993; cited from earlier work

Structure (SMILES): CC1OC(CC(=O)C2CCCC2C(=O)NC(Cc2ccccc2)C(=O)O)C(O)C(O)C1O (stereo not shown) [Compound 2]
- IC50 ([1]; glycopeptide analogs (WO 95/04751), region of up to): ≤ 1000 µM

Structure (SMILES): CC1OC(CCCCC2OC(CO)C(O)C(CCC(=O)O)C2O)C(O)C(O)C1O (stereo not shown) [Compound 3]
- IC50 ([1]; Wong et al., J. Am. Chem. Soc. 1995): 10000 to 20000 µM

Structure (SMILES): C=C(CO[C@H]1CC[C@]2(C)[C@H]3C(=O)C=C4[C@@H]5C[C@@](C)(C(=O)O)CC[C@]5(C)CC[C@@]4(C)[C@]3(C)CC[C@H]2C1(C)C)C[C@@H]1O[C@@H](C)[C@@H](O)[C@@H](O)[C@@H]1O [Compound 4a]
- inhibition of 5-lipoxygenase [2]: inhibition of 5-lipoxygenase
- P-selectin inhibition (in words) [3]: P-selectin inhibition
- IC50 ([3]; read-out: IC50 for binding to P-selectin): 750 µM
- antimetastatic action [4]: antimetastatic action

Structure (SMILES): C[C@@H]1O[C@@H](CCCOC(=O)N2CCC(C(=O)O)CC2)[C@@H](O)[C@H](O)[C@@H]1O [Compound 12c]
- inhibition of leukocyte adhesion ([5]; 3 mg/kg, 1 day i.v.): 58%
- inhibition of leukocyte adhesion ([5]; 20 mg/kg, 1 day p.o.): 29%

Structure (SMILES): CC(=O)NC1C(O)CC(OC2C(O)C(CO)OC(OC3C(CO)OC(O)C(NC(C)=O)C3OC3OC(C)C(O)C(O)C3O)C2O)(C(=O)O)OC1C(O)C(O)CO (stereo not shown) [SLeX]
- use in myocardial reperfusion injuries [6]: successfully used
- use in P-selectin-dependent lung injuries [7]: successfully used
